Experimental findings from ChEMBL document CHEMBL6115030, “Systematic All-Hydrocarbon Stapling Analysis for Cecropin A Generates a Potent and Stable Antimicrobial Peptide” (J Med Chem, 2025) are described below.

What is called MIC is the lowest concentration found to suppress growth.

Data set [1] can be described thus: Stability of the compound in human serum assessed as peptide degradation by RP-HPLC analysis. As to conditions: read-out: T50 (converted). It is filed as ADME, cell-free.
Data set [2] concerns Escherichia coli. The data set is described as follows: Induction of metabolism related pathways in Escherichia coli assessed as lipid metabolism pathway mRNAs at 12.5 uM measured after 2 hrs incubation by PCR analysis. The format is functional, organism-based.
The test system of data set [3] is Pseudomonas aeruginosa. The data set is described as follows: Antibacterial activity against Pseudomonas aeruginosa PAO1 assessed as inhibition of bacterial growth measured after 24 hrs by broth microdilution method. The format is functional. A general note: In broth dilution the organism is exposed to a series of concentrations in liquid medium.
Data set [4] can be described thus: Toxicity in C57BL/6 mouse assessed as death at 25 mg/kg, ip measured during 14 days of study. The format is organism-based. The settings on record: in vivo, 336 h, time 14 day.
Data set [5] concerns Escherichia coli. The data set is described as follows: In vivo antibacterial activity against Escherichia coli intraperitoneally injected into C57BL/6 mouse peritonitis model assessed as reduction in bacterial load in kidney at 2.5 mg/kg, ip measured after 48 hrs relative to control. It is filed as functional, organism-based.
Data set [6] deals with Escherichia coli. Put plainly: Induction of LPS transport pathway related genes in Escherichia coli assessed as change in LptG gene expression at 12.5 uM measured after 2 hrs incubation by PCR analysis. The format is functional, organism-based.
Data set [7] can be described thus: Toxicity in C57BL/6 female mouse assessed as haemorrhagic point and blurred white pulp boundary in liver at 25 mg/kg, ip measured during 14 days of study by H and E staining based analysis. The format is organism-based. As to conditions: in vivo, 336 h, time 14 day.
Data set [8] concerns Escherichia coli. Put plainly: Induction of multiple envelope stress pathway related pathways in Escherichia coli assessed as change in WcaL gene expression at 12.5 uM measured after 2 hrs incubation by PCR analysis. The format is functional, organism-based.
The subject of data set [9] is Pseudomonas aeruginosa. Put plainly: Antibacterial activity against Carbapenem-resistant Pseudomonas aeruginosa assessed as inhibition of bacterial growth measured after 24 hrs by broth microdilution method. The format is functional.
Another data set has as its system Cell membrane. The data set is described as follows: Induction of Outer membrane damage in Escherichia coli assessed as pore formation and surface rupture at 5 uM measured after 24 hrs by SEM imaging analysis. The format is subcellular.
The test system of data set [10] is Escherichia coli. The data set is described as follows: Induction of metabolism related pathways in Escherichia coli assessed as energetic metabolism pathway mRNAs at 12.5 uM measured after 2 hrs incubation by PCR analysis. It is filed as functional, organism-based.
The test system of the next data set is Acinetobacter baumannii. Put plainly: Antibacterial activity against Pandrug-resistant Acinetobacter baumannii assessed as inhibition of bacterial growth measured after 24 hrs by broth microdilution method. It is filed as functional.
Data set [11] deals with Escherichia coli. Put plainly: In vivo antibacterial activity against Escherichia coli intraperitoneally injected into C57BL/6 mouse peritonitis model assessed as reduction in bacterial load in spleen at 2.5 mg/kg, ip measured after 48 hrs relative to control. It is filed as functional, organism-based.
For the next data set, the system named is Staphylococcus aureus. Put plainly: Antibacterial activity against Staphylococcus aureus ATCC 25923 assessed as inhibition of bacterial growth measured after 24 hrs by broth microdilution method. It is filed as functional.
Data set [12] concerns Escherichia coli. The data set is described as follows: Induction of assembly related pathways in Escherichia coli assessed as change in OmpW gene expression at 12.5 uM measured after 2 hrs incubation by PCR analysis. The format is functional, organism-based.
Data set [13] is described as follows: Stability of the compound in human serum assessed as retention time by RP-HPLC analysis. It is filed as ADME, cell-free.
For data set [14], the system named is Escherichia coli. Put plainly: Induction of metabolism related pathways in Escherichia coli assessed as protein synthesis pathway mRNAs at 12.5 uM measured after 2 hrs incubation by PCR analysis. It is filed as functional, organism-based.

Values after ≈ are worked out from the molar mass of the structure shown. Active and inactive are the calls of the source. The rule behind the calls is not given here. Bridge positions count the residues as written; N and C are the ends. Square brackets hold non-standard residues; d marks the D form. Peptide text beside a SMILES is read from it. S5 = C=CCCC[C@](C)(N)C(=O)O

For the compound `CC[C@H](C)[C@H](NC(=O)CNC(=O)[C@H](CC(=O)O)NC(=O)[C@H](CCCNC(=N)N)NC(=O)[C@@H](NC(=O)[C@H](CC(N)=O)NC(=O)[C@H](CCC(N)=O)NC(=O)CNC(=O)[C@@H](NC(=O)[C@H](CCCCN)NC(=O)[C@H](CCC(=O)O)NC(=O)[C@@H](NC(=O)[C@H](CCCCN)NC(=O)[C@H](CCCCN)NC(=O)[C@H](Cc1ccccc1)NC(=O)[C@H](CC(C)C)NC(=O)[C@H](CCCCN)NC(=O)[C@H](Cc1c[nH]c2ccccc12)NC(=O)[C@H](CCCCN)NC(C)=O)[C@@H](C)CC)C(C)C)[C@@H](C)CC)C(=O)N[C@H](C(=O)N[C@@H](CCCCN)C(=O)N[C@@H](C)C(=O)NCC(=O)N1CCC[C@H]1C(=O)N[C@@H](C)C(=O)N[C@H](C(=O)N[C@@H](C)C(=O)N[C@H](C(=O)N[C@H](C(=O)NCC(=O)N[C@@H](CCC(N)=O)C(=O)N[C@@H](C)C(=O)N[C@@]1(C)CCC/C=C\CCC[C@@](C)(C(N)=O)NC(=O)[C@H](C)NC(=O)[C@H]([C@@H](C)CC)NC(=O)[C@H](CCC(N)=O)NC1=O)C(C)C)C(C)C)C(C)C)[C@@H](C)CC` (Ac-KWKLFKKIEKVGQNIRDGIIKAGPAVAVVGQA[S5]QIA[S5]-NH2; staple (Z) 33-37), the half-life in data set [1] was 591 min. In addition, the result in the data set with Escherichia coli [2], with Escherichia coli [6], in the data set on Escherichia coli [8], with Cell membrane, in the data set with Escherichia coli [10] and with Escherichia coli [12] was Active. The result with Escherichia coli [14] was Active. For the same compound, the MIC in the data set on Pseudomonas aeruginosa [3] was 6.25 µM (≈ 25.4 µg/mL); in the data set on Pseudomonas aeruginosa [9], > 100 µM; with Acinetobacter baumannii it was < 0.78 µM; with Staphylococcus aureus, 3.13 µM (≈ 12.7 µg/mL). Moreover, the Activity entry in [4] is given as “Non-toxic”; in the data set with Escherichia coli [5] it was “Active; Compound Showed Enhanced Bacterial Elimination Than Cec-0 And Compound Showed Comparable Bacterial Elimination To Polymyxin B”; in data set [7], “Non-toxic”; in the data set on Escherichia coli [11], “Active; Compound Showed Enhanced Bacterial Elimination Than Cec-0”. Further, in [13], the Retention_time came to 25.17 min.
